Measurements from US10918651B2, “Method for lowering thyrotropin levels in adults” (University of Louisiana at Lafayette, priority 2016, dated 2021).

Assays:
[1] = system: thyroid stimulating hormone (TSH)
Protocol: A study was performed of this invention using forty-eight male college-aged volunteers. The participants were divided into 4 groups of 12 subjects. The groups reported to the lab after an overnight fast and were then administered the following: 200 mg of Caffeine, 250 mg of A-GPC, 500 mg of A-GPC or placebo. One hour and two hours post administration blood was drawn from a vein in the antecubital space into a serum separator tube, this was allowed to stand for 15 minutes, then centrifuged and the serum drawn off and frozen at −35 degrees Celsius for later evaluation.
At the conclusion of data collection, the serum aliquots were thawed and a commercially available high-sensitivity ELISA was uses to quantify TSH levels (Eagle Biosciences TSH Ultrasensitive ELISA kit). Samples were tested in duplicate with inter and intra place CV % of less than 10. A repeated measures Anova was used to assess TSH level by group.

[2] = in vivo; cited from earlier work
dopamine receptors = settings: chronic administration, aging mice; cited from earlier work

For C[N+](C)(C)CCOP(=O)([O-])OC[C@H](O)CO [A-GPC, Alpha Glycerylphosphoryl Choline], which “TSH blood levels (effect)” value ([1]; 250 mg A-GPC, single administration) is on record?
Its value is “insufficient to reduce blood TSH”.

What about the “TSH level, group average” value ([1]; 500 mg A-GPC group, 12 males) of the same compound?
The value was 2.3.

And the “number of males exhibiting TSH levels lower than 2.0” value ([1]; 500 mg A-GPC group, 12 males)?
The value was 5 of the 12.

What about the “crossing the blood brain barrier” value [2] of the same compound?
The value was “capable of crossing the blood brain barrier”.

And the “incorporation into brain phospholipids after administration” value [2]?
Its value is “incorporated into brain phospholipids within twenty-four hours”.

For C[N+](C)(C)CCOP(=O)(O)OP(=O)([O-])OC[C@H]1O[C@@H](n2ccc(N)nc2=O)[C@H](O)[C@@H]1O [CDP-choline], which “dopamine receptors in the brain” value (dopamine receptors) is on record?
The value was “increase dopamine receptors in the brain”.
